Reference: patent publication US4863748A, “Dietary products and uses comprising methylsulfonylmethane” (priority 1986, dated 1989)
Where two headings read alike, the source gives them in different places.

How the values were obtained:
anticholinesterases = experiment: Antagonism of lethal effects of anticholinesterases; conditions: as stated in Example 19
[1] = Tolerance and toxicity on ingestion; assay type: in vivo, animals; conditions: for NOAEL: in vivo, po
From the text: The methylsulfonylmethane is usually provided in the aninmal's normal feed rations, periodically throughout the day or on successive days, or both, e.g., for 2 to 21 days or even longer. The daily food ration appropriate for the animal being fed is supplemented with an amount of methylsulfonylmethane calculated to correspond to a predetermined amount per total body weight of the animals being fed. The exact amount of methylsulfonylmethane ingested each day is not always critical, particularly when methylsulfonylmethane administration is over an extended period of days, because the ingested methylsulfonylmethane accumulates in the body tissues and fluids, i.e., reaches an effective titer. Methylsulfonylmethane-supplemented rations providing levels of as low as 0.5-1 mg/kg animal body weight are sometimes effective and levels as high as 300 mg/kg body weight or more are well tolerated. The usual target level per individual animal is about 0.2-2.0 mg/kg body weight preferably 0.5-1.0 mg per kg body weight. Total daily supplements corresponding to up to about 1 gm/kg body weight or more, are preferably employed, depending on the degree of deficiency. Healthy animals often have methylsulfonylmethane blood levels of at least 1 ppm, and desirably, enough methylsulfonylmethane is provided to raise blood levels to above 1 ppm. The oral ingestion of amounts of methylsulfonylmethane in excess of that required to elevate blood levels is not harmful because of the extremely non-toxic nature of methylsulfonylmethane.
One can safely administer 1-2 grams/kg body wt. of methylsulfonylmethane on a daily basis (equal to 1000-2000 ppm w/w basis). One therefore builds a safely tolerated blood level of about 4000 ppm, which level is highly toxic to many infective organism yet is harmless to the host. Methylsulfonylmethane provides a unique new therapeutic approach, used alone or with concurrent, conventional therapy.

[2] = Tolerance of intravenous infusion; assay type: in vivo, human patients; conditions: for side effect at infusion rate as high as 2 gm/kg/hr: i.v., some patients
Protocol: The amount of methylsulfonylmethane intravenously administered can vary substantially because of its lack of toxicity and adverse side effects. Individual doses can vary from about 0.01 to 2 gm/kg, preferably from about 0.1 to 1 gm/kg, on a body weight basis, the usual dosage range is about 0.25 to 0.75 gm/kg, preferably about 0.5 gm/kg.
When large amounts are administered, e.g., in the order of 1 g/kg of body weight or more, i.e., infusion of 5% to 10% solution of methylsulfonylmethane in water, physiological saline or 5% dextrose is preferred. The rate of administration is preferably no greater than about 1 gm/kg/hr, although infusion rates as high as 2 gm/kg/hr are tolerated by patients, except for light-headedness of the type experienced by some blood donors is experienced by some patients at this rate.
Such massive i.v. administrations can be repeated as frequently as every 24 hours.

mucous membranes = experiment: Binding of labeled 35-S dimethyl sulfone to mucous membranes by autoradiography; conditions: 35-S labeled
From the text: 1. Reducing the adverse response to inhalant allergens. This action may be due entirely or in part to a physical blocking action. Labeled 35-S dimethyl sulfone binds tightly to the surface of mucous membranes and by autoradiography, the membranes appears to be coated, as with a paint.

[3] = system: pruritis, acne, acne rosacea; experiment: Connective tissue and dermatological disorders (Example 13); assay type: in vivo, human
From the text: Teenagers found methylsulfonylmethane in cola drinks a particularly acceptable satisfactory combination when treating acne. With rosacea, visual improvement was much slower.

rabbit eye = experiment: Rabbit eye irritated with sodium lauryl sulfate (Example 14); assay type: in vivo; conditions: 10% aqueous solution every hour
Aspergillus niger = experiment: Antifungal activity; assay type: cell-based; conditions: 500 ppm
From the text: (§1) While not as potent or toxic to microbial populations as specific drug agents, by reason of its extremely low host systemic toxicity, methylsulfonylmethane contrasts sharply with present antiinfective therapeutants and methodology. It is doubtful if chemical resistance will develop with infective agents controlled by high, but safe, systemic levels of methylsulfonylmethane.

Phytophthora cinnamomi = experiment: Antifungal activity; assay type: cell-based; conditions: 500 ppm
From the text: as §1

Sclerotium rolfsii = experiment: Antifungal activity; assay type: cell-based; conditions: 500 ppm
From the text: as §1

leg cramps = experiment: Night leg cramps in geriatric patient (Example 26); assay type: in vivo, human; conditions: 10 mg/kg/day
Protocol: Administer methylsulfonylmethane to a geriatric patient (over 65 years) suffering from chronic night leg cramps at the rate of 10 mg/kg/day, either in tablet or capsule form, as described in parent application Ser. Nos. 418,110, 584,354 or 601,771, or in admixture with one or more foodstuffs ingested daily by the patient, e.g., milk, coffee, tea, cold desserts, etc. Within about 2 days, the leg cramps will diminish in frequency or disappear.

[4] = system: emphysema and lung tumor respiratory deficiency; experiment: Treatment of lung dysfunction (Example 29); assay type: in vivo, human
Protocol: Seven human subjects with respiratory deficiency were given methylsulfonylmethane by the oral route in amounts ranging from 250-1,500 mg/day, in single or divided units. Five presented emphysema believed associated with cigarette smoking. Two presented tumor involvement of the lung with additional function impairment due to pleural fluid accumulation.
Two of five subjects with emphysema had prior cardiorespiratory function tests and follow-up evaluations at six and eight weeks after starting a course of 500 mg/day orally of methylsulfonylmethane.
Prior to and during the test period, at approximately two-week intervals, all presenting emphysema were required to walk a measured distance compatible with their physical resources. […] The lung cavity fluid problem of each subject disappeared during the first months of the test period.

[5] = system: sharp pain spasms in the lower abdominal region; experiment: Acute pain, comparison with codeine, subject one (Example 33); assay type: in vivo, human
Protocol: Codeine and methylsulfonylmethane were compared for the relief of pain in subject one, a person who had sharp pain spasms in the lower abdominal region. Subject's appendix had been removed. Pain began after suffering an accidental traumatic blow to the abdomen during a volley ball game. Pyelogram examination indicated no obstruction. […] Codeine (2) plus 1/4 grain with aspirin every 4 hours, provided some relief. The codeine/aspirin was discontinued and 1 g methylsulfonylmethane in warm water was given. A half-hour later all discomfort ceased. A second gram of methylsulfonylmethane in water was given 4 hours later, after which the subject continued pain free.

skin = experiment: Effect on skin tissue; conditions: in vivo
From the text: Studies to date indicate that it is desirable that animals ingest about 0.5-1.0 milligram/kg body weight/day of methylsulfonylmethane to maintain optimum good health. However, any lower level will serve some benefit. Higher levels are either stored in the body as a sulfur reserve, provide a sufficient concentration to optimize synthesis of the multitude of required sulfur containing biomolecules, or simply are excreted as by the renal pathway or through the skin.

## CS(C)(=O)=O [methylsulfonylmethane]
anticholinesterases
  antagonism of anticholinesterases in vivo: antagonizes
[1]; in the host's diet
  acute and chronic toxicity: remarkably low
[1]; daily basis, read-out: safely administered daily dose
  NOAEL: 1000 to 2000 mg/kg/day
[1]; supplemented rations, or more, read-out: well tolerated level in rations
  NOAEL: ≥ 300 mg/kg
[1]; primates, at least two years
  toxicity at high (greater than 1 gm/kg body wt.) blood levels: lack evidence of methylsulfonylmethane toxicity
[2]; i.v. infusion
  tolerated infusion rate: ≤ 2 gm/kg/hr
[2]
  side effect at infusion rate as high as 2 gm/kg/hr: light-headedness
[2]; listed as dimethylsulfone
  side effect at infusion rate as high as 2 gm/kg/hr: transient light-headedness
Mucous membranes
  binding to the surface of mucous membranes: binds tightly
[3]; about 100-1000 mg per day
  response of pruritis and acne: respond promptly
[3]; diet supplemented
  response of dermatological problems: respond favorably
[3]; in vivo
  visual improvement with rosacea: much slower
[3]; subject three, 500 mg daily
  time before telangiectasis diminished: at least several weeks
Rabbit eye
  clearing of irritated eye: quickly cleared
Aspergillus niger
  antiparasitic (antifungal) activity: good antiparasitic activity
Phytophthora cinnamomi
  antiparasitic (antifungal) activity: good antiparasitic activity
Sclerotium rolfsii
  antiparasitic (antifungal) activity: good antiparasitic activity
Leg cramps
  time until leg cramps diminish in frequency or disappear: about 2 days
[4]; 500 mg/day orally, two emphysema subjects, six and eight weeks
  cardiorespiratory function values, in particular arterial oxygen tension: both had values in the normal range
[4]; emphysema sufferers, alone or with 1000 mg ascorbic acid/day, within 2-4 weeks
  comfortable walking distance: at least doubled
[4]; two subjects with lung tumors
  alertness, comfort and outlook: more alert, comfortable, and with a better outlook and attitude
[4]; two subjects with lung tumors, first months
  lung cavity fluid problem: disappeared
[5]; 1 g in warm water, oral
  time until all discomfort ceased: A half-hour
[5]; second gram 4 hours later
  pain after second gram: pain free
skin
  pliability and softness of the skin: improving
